This is an account of results in patent publication US6353020B1, “Fungicidal compositions containing N-acetonylbenzamides” (Dow AgroSciences LLC, priority 1998, dated 2002).

The subject of assay [1] is Phytophthora capsici (ATCC 15399). Description: In vitro test to control Phytophthora capsici (colony growth inhibition on potato dextrose agar). The assay is classed as cell-based.
Assay [2] has the same test system. The description is as above. In kind it is cell-based. As to the method: (§1) Dilution series of Compounds A and B were prepared in dimethylsulfoxide (DMSO), and aliquots added to 25 ml of molten potato dextrose agar at 50° C. to give the appropriate concentrations shown in the table below. Immediately after adding the compound(s), the molten agar was poured into 9-cm diameter petri plates and allowed to harden. The final concentration of DMSO in all plates was 0.5%. Control plates contained DMSO but neither compound. Plates were inoculated in the center with 1 μl of a suspension of Phytophthora capsici (ATCC 15399, obtainable from the American Type Culture Collection, Rockville, Md., U.S.A) zoospores containing 5×10^5 zoospores per milliliter. Three replicate plates were used for each treatment. Fungal colony diameters were measured after growth for 7 days at 25° C., and two measurements were taken from each plate. Inhibition of growth was calculated by comparing growth in the treatments with compound A and/or B with growth in the controls. Degree of inhibition (observed) is expressed as a percentage in Table 1a. The predicted % inhibition in treatments containing both A and B was calculated using the Colby Formula.
as §1, with “B′” for “B”, “(Observed)” for “(observed)”, “1b.” for “1a.”, “Formula, which is known to those skilled in the art (R. S. Colby, Weeds 15, 20-22 (1967)).” for “Formula.”
This is another data set of the same source.

The mark [3] stands for this setting: Phytophthora capsici, ATCC15399, read-out: % Inhibition (Observed).

Like-named read-outs stand apart in the source and are kept apart here.

Regarding `COCC(=O)N(c1c(C)cccc1C)C(C)C(=O)OC` (racemic) [Compound B′, racemic mixture of Metalaxyl, reference compound], the “% Inhibition (Observed)” value in assay [1] (Table 1b, Compound B′ 0.6 ppm alone, 7 days at 25° C.) is recorded as 35.1%; in assay [1] (Table 1b, Compound B′ 0.9 ppm alone, 7 days at 25° C.), 48.0%.
Turning to `CCC(C)(NC(=O)c1cc(Cl)c(C)c(Cl)c1)C(=O)CCl` (stereo not shown) [Compound A, N-[3′-(1′-chloro-3′-methyl-2′-oxopentan)]-3,5-dichloro-4-methylbenzamide], the “% Inhibition (Observed)” value in assay [1] (Table 1a, Compound A 0.1 ppm alone, 7 days at 25° C.) is on record as 29.0%; in assay [1] (Table 1b, Compound A 0.12 ppm alone) it was 52.3%; in assay [1] (Table 2, Compound A 0.1 ppm alone) it was 30.3%; in assay [1] (Table 2, Compound A 0.2 ppm alone), 39.3%; in assay [1] (Table 2, Compound A 0.3 ppm alone) it was 51.8%; in assay [1] (Table 3, Compound A 0.1 ppm alone), 29.0%. The “% Inhibition (Observed)” value in assay [1] (Table 3, Compound A 0.2 ppm alone) is 38.1%; in assay [1] (Table 3, Compound A 0.3 ppm alone), 47.4%; in assay [1] (Table 4, Compound A 0.1 ppm alone), 34.7%; in assay [1] (Table 4, Compound A 0.2 ppm alone), 44.5%; in assay [1] (Table 4, Compound A 0.3 ppm alone), 49.4%; in assay [2] (Table 1b, Compound A 0.04 ppm alone), 31.0%. The “% Inhibition (Observed)” value turned out to be 47.2% in assay [2] (Table 1b, Compound A 0.08 ppm alone) and 55.2% in assay [2] (Table 1b, Compound A 0.16 ppm alone).
With `COC(=O)C(C)N(C(=O)Cc1ccccc1)c1c(C)cccc1C` (stereo not shown) [Compound E, Benalaxyl, reference compound], in assay [1] (Phytophthora capsici, ATCC15399, Table 4, Compound E 20 ppm alone, read-out: % Inhibition (Observed)), the inhibition (in general, the drop in the measured response relative to a control, in per cent) at 20 ppm came out at 46.6%.
For `COCC(=O)N(c1c(C)cccc1C)[C@H](C)C(=O)OC` (single isomer, unassigned) [Compound B, R-Enantiomer of Metalaxyl, reference compound], the “% Inhibition (Observed)” value in assay [1] (Table 1a, Compound B 0.5 ppm alone, 7 days at 25° C.) was 56.0%; in assay [2] (Table 1a, Compound B 0.25 ppm alone, 7 days at 25° C.) it was 17.9%; in assay [2] (Table 1a, Compound B 0.75 ppm alone, 7 days at 25° C.) it was 57.6%.
Take `Cc1cccc(C)c1N(C(=O)CCl)C1CCOC1=O` (stereo not shown) [Compound D, Ofurace, reference compound]: the inhibition at 12.5 ppm in assay [1] (Phytophthora capsici, ATCC15399, Table 3, Compound D 12.5 ppm alone, read-out: % Inhibition (Observed)) is 52.1%. Also, in assay [1] (Phytophthora capsici, ATCC15399, Table 3, Compound D 25 ppm alone, read-out: % Inhibition (Observed)), the inhibition at 25 ppm is 56%.
Take `COCC(=O)N(c1c(C)cccc1C)N1CCOC1=O` [Compound C, Oxadixyl, reference compound]: in assay [1] (setting [3]), the inhibition at 6.25 ppm is 30.3%, the inhibition at 12.5 ppm is 41.3% and the inhibition at 25 ppm turned out to be 50.8%.
